Measurements taken from article PMC11773334, “Preparation and pharmacokinetic evaluation of a sertraline-methylpropyphenazone prodrug: a comparative metabolic study on the plasma and brain tissues of rats using LC-MS/MS analysis” (RSC Advances, 2025).

Assays:
[1] = QC sample stability in spiked rat plasma; assay type: in vitro ADME
Experimental: The working solutions were prepared separately for obtaining a 100 μg mL^−1 concentration. Calibration standards were generated from the working solution by spiking control plasma (100 μL) with a standard mixture to get the final concentrations: 25, 100, 250, 500, 1000, and 2000 ng mL^−1 plasma of each analyte. […]
Solid-phase extraction (SPE) was performed on the calibration standards prepared in plasma, quality control (QC) samples, rat plasma, and brain homogenate samples using Chromabond ® C8-100 mg columns (Macherey Nagel, Düren, Germany). […] The SPE column was filled with 25 μL of 0.1% aqueous ammonia solution, 100 μL plasma or brain homogenate, and 50 μL IS (20 ng μL^−1). […] The eluant was dried with nitrogen gas at room temperature, then reconstituted in 300 μL methanol, vortex, and transferred to a 0.9 mL total recovery autosampler vial, and dried with nitrogen gas.
(§1) The linearity of the targeted analytes was evaluated at six concentration levels spanning the range of 25–2000 ng mL^−1, and the calibration parameters were calculated. The method's accuracy was determined by calculating the estimated value for each QC sample compared with the actual concentration. The precision was assessed by analysis of QC samples at different concentrations (25.0, 500.0, and 2000.0 ng mL^−1) on separate days. The lowest point in the calibration curve was defined as the lower limit of quantification (LLOQ), which was determined to be at an acceptable accuracy and precision. The recovery of the extractions was evaluated by comparing the areas under the peak of the extracted samples with a non-extracted standard solution. Also, the matrix effect was evaluated by comparing the plasma sample spiked with the analyte with corresponding standard solutions at the same concentrations. Finally, the stability of the sample was investigated at three concentration levels, applying the same chromatographic conditions. The stability tests included long-term, short-term, and freeze-thaw stability.

[2] = cited from earlier work
[3] = Stability of standard solutions under storage conditions; assay type: physicochemical; conditions: room temperature for 6 h and 4 °C for 12 h
Experimental: as §1
Standard solutions were maintained at room temperature for 6 h and 4 °C for 12 h, and then analyzed using the developed method. […] Recoveries remained above 89%, and the standard deviation (SD%) values were below 3%, as detailed in Table 3.

rat serotonin (ST) = assay: Analysis of serotonin in brain homogenate (ELISA sandwich kit); conditions: SER: within 1 to 3 h after oral administration, Fig. 6
Experimental: Wistar rats weighing 250 ± 30 g were included in the study. […] Phosphate-buffered saline (PBS) was utilized as a matrix to homogenize the brain samples. Both the brain and blood samples were frozen at −80 °C until their analysis.
An enzyme-linked immunosorbent assay (ELISA) sandwich kit was used in this study as it is known that it can accurately quantify rat serotonin (ST) in serum, plasma, cell culture supernatants, ascites, tissue homogenates, and other biological fluids. In the assay, first the plate was pre-coated with a rat ST antibody. When ST is present in the sample, it binds to the antibodies on the wells. Next, a biotinylated rat ST antibody was added, which binds to the ST in the sample. Streptavidin-HRP was then added, binding to the biotinylated ST antibody. After incubation, the unbound Streptavidin-HRP was washed away. […] The reaction was terminated by adding an acidic stop solution, and then the absorbance was measured at 450 nm.

[4] = Rat plasma pharmacokinetics after oral administration (LC-MS/MS, noncompartmental model)
Experimental: Sildenafil was used as an internal standard (IS). […] The MS conditions were set as follows: the ESI temperature was 330 °C, nitrogen gas flow rate was 11 L min^−1, nebulizer pressure was 35 psi, and capillary voltage was 4000 V. The MS settings were optimized for each compound, including the fragmentor voltage, dwell time (sec), and collision energy voltage. […] A gradient elution program was applied using a mobile phase composed of methanol (solvent A) and 0.7 g L^−1 ammonium acetate trihydrate in water with 0.1% formic acid (solvent B). […] The mobile phase was pumped at a flow rate of 0.4 mL min^−1. The equilibration duration was 7.0 min. The sample injection volume was 5 μL. The total running time for the analysis was 20 min. […] The SPE column was conditioned with 1 mL methanol and 2 mL of 0.1% aqueous ammonia solution. […] The SPE column was gently clicked to mix the solution, then allowed to elute just below the stationary phase surface before being trapped for 1 min in the stationary phase. The column was then washed with 1 mL of 0.1% ammonia solution, forcing nitrogen to eject water from the SPE column. The column was connected to a new port via a clean test tube, and the analytes were eluted using 3 mL ethyl acetate: n-hexane (2 : 1, v/v) and 1 mL methanol. […] The residue was dissolved in 50 μL methanol, and a 5 μL volume was injected for LC-MS/MS analysis. […] The results were expressed as the mean ± SD. The evaluated parameters included Cmax (maximum concentration), Tmax (time to reach Cmax), t1/2 (half-life), Ke (elimination rate constant), AUC (area under the concentration–time curve), AUMC (area under the first moment curve), and MRT (mean residence time). The data were analyzed using Kinetica® software, employing a noncompartmental analysis approach. […] The pharmacokinetic parameters between the groups were compared using an unpaired two-tailed t-test. Statistical significance was defined as P < 0.05.

[5] = Concentration in rat brain homogenate after oral administration (LC-MS/MS); assay type: in vivo, Wistar rats; conditions: 0.5 to 192 h after oral SER-MP
Experimental: Sildenafil was used as an internal standard (IS). […] The gradient program was configured as follows: 68% A from 0 to 2 min, raised to 96% A at 4.0 min, sustained at 96% A until 13 min, and then reverting back to 68% A at 13.1 min. […] The equilibration duration was 7.0 min. The sample injection volume was 5 μL.

[6] = rat plasma, oral SER-MP 16.0 mg kg^−1 (equimolar to SER dose), analyte SER-MP or released metabolite

Structure (SMILES) | Average recovery (%) ± SD, Autosampler (25 °C/24 h) ([1]; 50.0 ng mL^−1) | Average recovery (%) ± SD, Freeze-thaw (−20 °C/3 cycles) ([1]; 50.0 ng mL^−1) | Average recovery (%) ± SD, Autosampler (25 °C/24 h) ([1]; 500.0 ng mL^−1) | Average recovery (%) ± SD, Freeze-thaw (−20 °C/3 cycles) ([1]; 500.0 ng mL^−1) | Average recovery (%) ± SD, Autosampler (25 °C/24 h) ([1]; 2000.0 ng mL^−1) | Average recovery (%) ± SD, Freeze-thaw (−20 °C/3 cycles) ([1]; 2000.0 ng mL^−1) | Stability of standard solutions (change in peak area) [3] | further results
CC(C)c1c(CO)n(C)n(-c2ccccc2)c1=O [3-OHMP, 3-hydroxymethylpropyphenazone] | 96.80 ± 0.98% | 94.39 ± 2.98% | 96.55 ± 1.20% | 95.47 ± 1.57% | 95.24 ± 2.56% | 95.73 ± 1.93% | – | –
N[C@H]1CC[C@@H](c2ccc(Cl)c(Cl)c2)c2ccccc21 [N-desmethyl-SER, N-Desmethyl-sertraline] | – | – | – | – | – | – | – | Half-life (t1/2) ([2]; in vivo): 66 to 80 h
CN[C@H]1CC[C@@H](c2ccc(Cl)c(Cl)c2)c2ccccc21 [SER, (1S,4S)-4-(3,4-dichlorophenyl)-N-methyl-1,2,3,4-tetrahydronaphthalen-1-amine] | 92.98 ± 1.35% | 91.04 ± 2.95% | 93.23 ± 0.98% | 90.68 ± 3.92% | 91.15 ± 2.20% | 89.23 ± 4.00% | No significant changes in peak area values | Fraction excreted as metabolites [2]: About 40%; Fraction in plasma bound to proteins [2]: About 98%
CC(C)c1c(CN(C)C2CCC(c3ccc(Cl)c(Cl)c3)c3ccccc32)n(C)n(-c2ccccc2)c1=O (stereo not shown) [SER-MP, sertraline-methylpropyphenazone] | 97.45 ± 0.78% | 95.70 ± 1.76% | 98.76 ± 1.03% | 96.84 ± 0.68% | 98.88 ± 0.80% | 94.99 ± 2.09% | No significant changes in peak area values | Course of serotonin level in the brain after a single oral dose (rat serotonin (ST)): approximately steady level; half-life ([4]; Wistar, rat, plasma, po, 16 mg kg^−1, t1/2 (half-life), rat plasma, oral SER-MP 16.0 mg kg^−1 (equimolar to SER dose), analyte SER-MP or released metabolite): 50 h; Cmax ([4]; Wistar, rat, plasma, po, 16 mg/kg, Cmax (maximum plasma concentration), rat plasma, oral SER-MP 16.0 mg kg^−1 (equimolar to SER dose), analyte SER-MP or released metabolite): 192 ng/mL; Cmax (maximum plasma concentration) [4, 6]: 192.11 ng/mL; Total clearance rate [4, 6]: 4.32 mL/day/kg; t1/2 (half-life) [4, 6]: 49.97 h; Concentration of SER-MP in rat brain [5]: ~100 ng/g
CC(C)c1c(CN[C@H]2CC[C@@H](c3ccc(Cl)c(Cl)c3)c3ccccc32)n(C)n(-c2ccccc2)c1=O [nor-methyl-SER-MP] | – | – | – | – | – | – | – | Time retained in the plasma ([4]; rat plasma after oral SER-MP, major metabolite): 195 h
